Results from patent US20110144014A1, “CYTOKINE RECEPTOR MODULATORS AND USES THEREOF” (CENTRE HOSPITALIER UNIVERSITAIRE SAINTE-JUSTINE, priority 2005, published 2011).

Assays:
IL-1R/IL-1RacP = test: IL-1-induced PGE2 synthesis in endothelial cells; format: cell-based, porcine
Method: Efficiencies and inhibitory activities of the mutated peptides were determined by measuring the inhibition of IL-1-induced PGE2 synthesis. […] All peptides were tested at concentration 10^−6M.
The arginine of API-101.10 (SEQ ID NO: 10) was replaced by citrulline—to change from a guanidine to a urea group near the N-terminal. Other mutations (e.g. E to Q in API-101.102 and API-101.103) and a truncated peptide at the C-terminal (API-101.108) were also performed to improve the potency and the efficacy of the peptides. Measurement of PGE2 was performed with piglet brain microvessel endothelial cells and WI-38 human fibroblasts. Some of the mutations were advantageous and gave major increases in potency.
IL-1-induced PGE2 synthesis assay on endothelial cells was used as a screening assay for the peptidomimetics.

IL-1R = target: T1, IL-1R (Homo sapiens, UniProt P14778); test: IL-1R antagonist activity, structure vs. activity text, assay not stated
T1 sequence (P14778 18-569): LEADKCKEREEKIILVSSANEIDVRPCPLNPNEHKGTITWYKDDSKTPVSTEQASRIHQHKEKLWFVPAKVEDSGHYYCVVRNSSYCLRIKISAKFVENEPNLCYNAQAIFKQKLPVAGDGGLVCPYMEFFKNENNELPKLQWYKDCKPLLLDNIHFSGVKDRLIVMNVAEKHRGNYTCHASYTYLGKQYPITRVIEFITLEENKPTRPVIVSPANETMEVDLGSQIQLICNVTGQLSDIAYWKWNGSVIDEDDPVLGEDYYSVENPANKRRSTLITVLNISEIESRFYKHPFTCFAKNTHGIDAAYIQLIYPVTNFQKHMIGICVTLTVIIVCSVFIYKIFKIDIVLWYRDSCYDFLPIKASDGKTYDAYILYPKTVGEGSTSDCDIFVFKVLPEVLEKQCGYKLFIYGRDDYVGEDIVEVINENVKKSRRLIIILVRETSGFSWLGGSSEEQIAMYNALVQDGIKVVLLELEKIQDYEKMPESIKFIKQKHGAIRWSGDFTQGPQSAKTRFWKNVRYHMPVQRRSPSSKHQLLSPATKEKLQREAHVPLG
T1 sequence (Q9NPH3 21-570 partner): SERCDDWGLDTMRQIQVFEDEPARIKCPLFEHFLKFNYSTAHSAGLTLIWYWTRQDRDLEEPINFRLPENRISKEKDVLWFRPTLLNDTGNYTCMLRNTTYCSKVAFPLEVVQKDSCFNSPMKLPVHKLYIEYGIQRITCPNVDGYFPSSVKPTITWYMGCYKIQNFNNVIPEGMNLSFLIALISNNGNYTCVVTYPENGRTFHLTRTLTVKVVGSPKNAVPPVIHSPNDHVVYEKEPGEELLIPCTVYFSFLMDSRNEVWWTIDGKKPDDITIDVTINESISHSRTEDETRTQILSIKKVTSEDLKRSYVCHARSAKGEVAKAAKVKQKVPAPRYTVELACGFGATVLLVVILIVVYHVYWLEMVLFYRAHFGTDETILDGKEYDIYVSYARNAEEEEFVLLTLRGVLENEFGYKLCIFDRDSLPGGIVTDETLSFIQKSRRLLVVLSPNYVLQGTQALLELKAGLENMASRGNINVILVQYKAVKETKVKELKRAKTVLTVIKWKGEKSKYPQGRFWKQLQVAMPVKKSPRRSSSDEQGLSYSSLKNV

IC50 (IL-1R): 0.01 nM
Structure (SMILES): CC(C)C[C@@H](NC(=O)[C@@H](CCC(=O)O)NC(=O)[C@H]1CC[C@H]2CC[C@@H](NC(=O)[C@@H](Cc3ccc(O)cc3)NC(=O)[C@H](N)CCCNC(=N)N)C(=O)N21)C(=O)N[C@H](C)C(N)=O [API-101.110, RY(I^2aa)ELA]
efficacy relative to API-101.107 (IL-1R/IL-1RacP): twice the efficacy
potency relative to API-101.107 (IL-1R/IL-1RacP): 10 fold
